tested on: ADP-induced human platelet aggregation; experiment: Inhibition of ADP-mediated platelet aggregation in vitro (PRP assay); assay type: cell-based; details: 2 μM ADP, 96-well microtiter assay
Method: I. Inhibition of ADP-Mediated Platelet Aggregation In Vitro
The effect of testing the compound according to the invention on ADP-induced human platelet aggregation is preferably assessed in 96-well microtiter assay (see generally the procedures in Jantzen, H. M. et al. (1999) Thromb. Hemost. 81:111–117). Human venous blood is collected from healthy, drug-free volunteers into ACD (85 mM sodium citrate, 111 mM glucose, 71.4 mM citric acid) containing PGI2 (1.25 ml ACD containing 1.6 μM PGI2/10 ml blood; PGI2 was from Sigma, St. Louis, Mo.). Platelet-rich plasma (PRP) is prepared by centrifugation at 160×g for 20 minutes at room temperature. Washed platelets are prepared by centrifuging PRP for 10 minutes at 730×g and resuspending the platelet pellet in CGS (13 mM sodium citrate, 30 mM glucose, 120 mM NaCl; 2 ml CGS/10 ml original blood volume) containing 1U/ml apyrase (grade V, Sigma, St. Louis, Mo.). After incubation at 37° C. for 15 minutes, the platelets are collected by centrifugation at 730×g for 10 minutes and resuspended at a concentration of 3×10^8 platelets/ml in Hepes-Tyrode's buffer (10 mM Hepes, 138 mM NaCl, 5.5 mM glucose, 2.9 mM KCl, 12 mM NaHCO3, pH 7.4) containing 0.1% bovine serum albumin, 1 mM CaCl2 and 1 mM MgCl2. This platelet suspension is kept >45 minutes at 37° C. before use in aggregation assays.
Inhibition of ADP-dependent aggregation is preferably determined in 96-well flat-bottom microtiter plates using a microtiter plate shaker and plate reader similar to the procedure described by Frantantoni et al., Am. J. Clin. Pathol. 94, 613 (1990). All steps are performed at room temperature. The total reaction volume of 0.2 ml/well includes in Hepes-Tyrodes buffer/0.1% BSA: 4.5×10^7 apyrase-washed platelets, 0.5 mg/ml human fibrinogen (American Diagnostica, Inc., Greenwich, Conn.), serial dilutions of test compounds (buffer for control wells) in 0.6% DMSO. After about 5 minutes preincubation at room temperature, ADP is added to a final concentration of 2 μM which induces submaximal aggregation. Buffer is added instead of ADP to one set of control wells (ADP^− control). The OD of the samples is then determined at 490 nm using a microtiter plate reader (Softmax, Molecular Devices, Menlo Park, Calif.) resulting in the 0 minute reading. The plates are then agitated for 5 min on a microtiter plate shaker and the 5 minute reading is obtained in the plate reader. Aggregation is calculated from the decrease of OD at 490 nm at t=5 minutes compared to t=0 minutes and is expressed as % of the decrease in the ADP control samples after correcting for changes in the unaggregated control samples.
The table below provides activity for selected compounds of the invention, evaluated as described above. In the table below, activity in the PRP assay is provided as follows: +++, IC50<10 μM; ++, 10 μM<IC50<30 μM; and +, IC50>30 μM.

| SMILES | IC50 |
| --- | --- |
| COc1cccc(CNc2ccc3c(=O)n(-c4ccc(NC(=O)NS(=O)(=O)c5ccc(Cl)s5)cc4)c(=O)[nH]c3c2)c1 [Example 41] | 10 to 30 µM |
| Cc1csc(CNc2ccc3c(=O)n(-c4ccc(NC(=O)NS(=O)(=O)c5ccc(Cl)s5)cc4)c(=O)[nH]c3c2)c1 [Example 53] | 10 to 30 µM |
| Cc1c(F)cccc1CNc1ccc2c(=O)n(-c3ccc(NC(=O)NS(=O)(=O)c4ccc(Cl)s4)cc3)c(=O)[nH]c2c1 [Example 100] | < 10 µM |
| Cc1cc(NC(=O)NS(=O)(=O)c2cccs2)ccc1-n1c(=O)[nH]c2cc(NCc3ccc(Cl)cc3)ccc2c1=O [Example 16] | < 10 µM |
| O=C(Nc1ccc(-n2c(=O)[nH]c3cc(NCc4ccsc4)ccc3c2=O)cc1)NS(=O)(=O)c1ccc(Cl)s1 [Example 57] | < 10 µM |
| Cc1nc(C)c(CNc2ccc3c(=O)n(-c4ccc(NC(=O)NS(=O)(=O)c5ccc(Cl)s5)cc4)c(=O)[nH]c3c2)s1 [Example 65] | > 30 µM |
| O=C(NS(=O)(=O)c1ccc(Cl)s1)c1ccc(-n2c(=O)[nH]c3cc(NCc4ccc(F)cc4)ccc3c2=O)cc1F [Example 113, 4-(7-(4-fluorobenzylamino)-2,4-dioxo-1,2-dihydroquinazolin-3(4H)-yl)-N-(5-chlorothiophen-2-ylsulfonyl)-2-fluorobenzamide] | < 10 µM |
| Cc1cc(-n2c(=O)[nH]c3cc(NCc4ccc(F)cc4)ccc3c2=O)ccc1NC(=O)NS(=O)(=O)c1ccc(Cl)s1 [Example 5, 1-(4-(7-(4-fluorobenzylamino)-2,4-dioxo-1,2-dihydroquinazolin-3(4H)-yl)-2-methylphenyl)-3-(5-chlorothiophen-2-ylsulfonyl)urea] | < 10 µM |
| O=C(Nc1ccc(-n2c(=O)[nH]c3cc(NCc4ccc(Cl)o4)ccc3c2=O)cc1)NS(=O)(=O)c1ccc(Cl)s1 [Example 72] | 10 to 30 µM |
| O=C(Nc1ccc(-n2c(=O)[nH]c3cc(NCc4ccc(F)cc4)ccc3c2=O)cc1)NS(=O)(=O)c1ccc(Cl)s1 [Example 21] | < 10 µM |
| O=C(Nc1ccc(-n2c(=O)[nH]c3cc(NCc4ccc(F)cc4F)ccc3c2=O)cc1)NS(=O)(=O)c1ccc(Cl)s1 [Example 102] | > 30 µM |
| O=C(Nc1ccc(-n2c(=O)[nH]c3cc(NCc4ccc(Cl)s4)ccc3c2=O)cc1)NS(=O)(=O)c1ccc(Cl)s1 [Example 51] | < 10 µM |
| O=C(Nc1ccc(-n2c(=O)[nH]c3cc(NCc4ccccc4)ccc3c2=O)cc1)NS(=O)(=O)c1ccc(Cl)s1 [Example 3] | < 10 µM |
| O=C(Nc1ccc(-n2c(=O)[nH]c3cc(NCc4ccc(Cl)cc4)ccc3c2=O)cc1)NS(=O)(=O)c1ccc(Cl)s1 [Example 12] | < 10 µM |
| O=C(Nc1ccc(-n2c(=O)[nH]c3cc(NCc4cncs4)ccc3c2=O)cc1)NS(=O)(=O)c1ccc(Cl)s1 [Example 61] | 10 to 30 µM |
| Cn1ccnc1CNc1ccc2c(=O)n(-c3ccc(NC(=O)NS(=O)(=O)c4ccc(Cl)s4)cc3)c(=O)[nH]c2c1 [Example 77] | > 30 µM |
| O=C(NS(=O)(=O)c1ccc(Cl)s1)c1ccc(-n2c(=O)[nH]c3cc(NCc4ccc(F)cc4)ccc3c2=O)cc1 [Example 106, 4-(7-(4-fluorobenzylamino)-2,4-dioxo-1,2-dihydroquinazolin-3(4H)-yl)-N-(5-chlorothiophen-2-ylsulfonyl)benzamide] | < 10 µM |
| O=C(Nc1ccc(-n2c(=O)[nH]c3cc(NCc4nc5ccccc5s4)ccc3c2=O)cc1)NS(=O)(=O)c1ccc(Cl)s1 [Example 94] | > 30 µM |
